Experimental data published in the NIST ThermoML archive (doi:10.1016/j.fluid.2017.12.001).

How the values were obtained:
[1] = 101.33 kPa, Liquid; for viscosity: Concentric cylinders viscometry; for mass density: Vibrating tube method; for speed of sound: Single path-length method
[2] = xn = mol fraction of the nth substance listed; settings: 100.9 kPa, Liquid, Concentric cylinders viscometry, x2 = 0

O [water]
[1]
Settings | mass density [kg/m3] | speed of sound [m/s] | viscosity [mPa·s]
283 K | 999.72 | – | 1.31
286 K | 999.46 | 1457 | 1.23
288 K | – | – | 1.15
291 K | 998.69 | 1475 | 1.08
293 K | – | – | 1.02
296 K | 997.66 | 1490 | 0.96
298 K | – | – | 0.9
301 K | 996.37 | 1503 | 0.85
303 K | – | – | 0.8
306 K | 994.87 | 1515 | 0.76
308 K | – | – | 0.72
311 K | 993.15 | 1525 | 0.69
313 K | – | 1529 | 0.65
316 K | 991.23 | 1533 | 0.62
318 K | – | 1537 | 0.59
321 K | 989.15 | 1540 | 0.57
323 K | 988.03 | – | 0.54

O [water] + CCCC(=O)[O-].CC[NH2+]CC
[2]
Settings | viscosity [mPa·s]
283.15 K | 1.31
285.65 K | 1.23
288.15 K | 1.15
290.65 K | 1.08
293.15 K | 1.02
295.65 K | 0.96
298.15 K | 0.9
300.65 K | 0.85
303.15 K | 0.8
305.65 K | 0.76
308.15 K | 0.72
310.65 K | 0.69
313.15 K | 0.65
315.65 K | 0.62
318.15 K | 0.59
320.65 K | 0.57
323.15 K | 0.54
325.65 K | 0.51
328.15 K | 0.49
330.65 K | 0.47
333.15 K | 0.45
335.65 K | 0.43
338.15 K | 0.41
340.65 K | 0.39
343.15 K | 0.37
